Experimental data published in US8067042B1 (Mutual Pharmaceutical Company, Inc., priority 2007, dated 2011).
Several values for one entry are separate records, joined by “and”; a condition that tells them apart may be missing. Equal values may be shown once. Read-outs that look alike come from different tables or passages of the source. Marks after values point to notes of the source that are not given here.

Key:
[1] = molecular target: Human CYP3A4 + P450 Reductase + Cytochrome b5 SUPERSOMES (Homo sapiens, UniProt P08684)
Human CYP3A4 + P450 Reductase + Cytochrome b5 SUPERSOMES, sequence (P08684 whole entry, canonical isoform): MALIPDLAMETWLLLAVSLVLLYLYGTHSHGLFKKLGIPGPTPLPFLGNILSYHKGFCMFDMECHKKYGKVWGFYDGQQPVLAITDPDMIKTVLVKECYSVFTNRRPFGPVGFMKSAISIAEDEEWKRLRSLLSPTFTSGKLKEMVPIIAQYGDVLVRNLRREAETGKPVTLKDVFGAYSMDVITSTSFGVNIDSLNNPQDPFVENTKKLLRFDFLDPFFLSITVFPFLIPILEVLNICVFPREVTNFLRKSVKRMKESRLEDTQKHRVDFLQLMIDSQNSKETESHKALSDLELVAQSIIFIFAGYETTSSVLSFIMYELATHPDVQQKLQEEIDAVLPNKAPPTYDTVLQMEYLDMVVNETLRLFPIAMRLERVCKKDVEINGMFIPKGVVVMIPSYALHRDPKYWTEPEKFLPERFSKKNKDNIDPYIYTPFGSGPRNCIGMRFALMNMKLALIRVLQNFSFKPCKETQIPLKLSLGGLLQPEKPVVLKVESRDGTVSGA
Method: (§1) In this study, individual CYP isoforms expressed from human cDNA and P450 reductase cDNA were used (BD SUPERSOMES™ Enzymes, BD Biosciences Discovery Labware, Woburn, Mass.). SUPERSOMES™ are microsomes from baculovirus-infected insect cells containing singly expressed recombinant human CYP enzymes.
(§2) After a 5-minute preincubation, an appropriate amount of the appropriate buffer was added to the reaction mixtures to make the final volume of 0.5 mL. The incubations were continued for 60 minutes.
(§3) All incubation reactions were terminated by adding 0.5 mL methanol, and the samples were transferred to cryovials and stored at −70±10° C. until analysis.

[2] = molecular target: T1, Human CYP2B6 + P450 Reductase + Cytochrome b5 SUPERSOMES (Homo sapiens, UniProt P20813)
T1 sequence (P20813 1-491): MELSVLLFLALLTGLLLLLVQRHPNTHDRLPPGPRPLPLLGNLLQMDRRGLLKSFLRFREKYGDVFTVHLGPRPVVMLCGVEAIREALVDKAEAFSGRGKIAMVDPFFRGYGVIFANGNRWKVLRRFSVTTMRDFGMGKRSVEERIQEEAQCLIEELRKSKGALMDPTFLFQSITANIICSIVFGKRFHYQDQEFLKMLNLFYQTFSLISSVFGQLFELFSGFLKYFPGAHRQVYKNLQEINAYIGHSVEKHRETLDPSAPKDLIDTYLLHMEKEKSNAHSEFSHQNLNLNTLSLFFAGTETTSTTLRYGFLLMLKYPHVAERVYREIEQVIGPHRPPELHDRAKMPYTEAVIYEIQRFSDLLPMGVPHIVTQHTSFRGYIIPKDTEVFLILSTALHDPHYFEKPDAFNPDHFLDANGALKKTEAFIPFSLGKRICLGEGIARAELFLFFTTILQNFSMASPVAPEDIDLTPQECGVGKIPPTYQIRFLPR
Method: as §1, §2, §3

[3] = molecular target: Human CYP2C19 + P450 Reductase + Cytochrome b5 SUPERSOMES (Homo sapiens, UniProt P33261)
Human CYP2C19 + P450 Reductase + Cytochrome b5 SUPERSOMES, sequence (P33261 whole entry): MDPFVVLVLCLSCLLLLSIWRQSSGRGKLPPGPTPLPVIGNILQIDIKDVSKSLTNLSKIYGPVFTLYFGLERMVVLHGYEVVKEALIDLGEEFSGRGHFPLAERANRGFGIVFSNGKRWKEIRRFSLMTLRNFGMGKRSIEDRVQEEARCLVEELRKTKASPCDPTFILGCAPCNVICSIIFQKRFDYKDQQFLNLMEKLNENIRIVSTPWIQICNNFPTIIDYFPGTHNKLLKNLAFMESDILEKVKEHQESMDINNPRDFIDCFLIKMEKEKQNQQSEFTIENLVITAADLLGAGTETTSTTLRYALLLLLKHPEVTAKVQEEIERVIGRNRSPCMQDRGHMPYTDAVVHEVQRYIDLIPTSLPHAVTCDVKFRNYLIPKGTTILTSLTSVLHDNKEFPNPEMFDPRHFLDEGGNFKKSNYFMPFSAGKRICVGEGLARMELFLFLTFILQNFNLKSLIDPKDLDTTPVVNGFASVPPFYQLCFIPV
Method: as §1, §2, §3

[4] = molecular target: T2, Human CYP2C8 + P450 Reductase + Cytochrome b5 SUPERSOMES (Homo sapiens, UniProt P10632)
T2 sequence (P10632 1-490): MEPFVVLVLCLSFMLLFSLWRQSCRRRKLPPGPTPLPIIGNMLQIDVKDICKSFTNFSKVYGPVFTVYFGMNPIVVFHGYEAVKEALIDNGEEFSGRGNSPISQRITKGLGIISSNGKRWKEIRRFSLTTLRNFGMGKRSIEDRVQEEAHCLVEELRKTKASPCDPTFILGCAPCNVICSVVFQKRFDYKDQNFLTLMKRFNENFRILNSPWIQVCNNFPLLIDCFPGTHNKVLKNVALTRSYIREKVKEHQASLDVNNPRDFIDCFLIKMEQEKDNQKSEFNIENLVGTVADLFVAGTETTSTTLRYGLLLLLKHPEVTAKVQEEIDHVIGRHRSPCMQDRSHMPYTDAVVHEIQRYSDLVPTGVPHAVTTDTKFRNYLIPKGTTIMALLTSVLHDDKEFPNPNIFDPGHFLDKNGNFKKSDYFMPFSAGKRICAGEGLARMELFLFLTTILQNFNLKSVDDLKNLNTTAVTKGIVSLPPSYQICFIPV
Method: as §1, §2, §3

CYP2B6 = molecular target: T3, CYP2B6 (Homo sapiens, UniProt P20813); details: 50 μM (with 1% methanol)
T3 sequence (P20813 1-491): T1 sequence (P20813 1-491)
Method: All incubations were carried out in triplicates.

CYP2E1 = type: in vitro ADME; details: 50 μM megestrol acetate, microsomes, diethyldithiocarbamate
[5] = 5 μM, 5 pmol enzyme, listed as megestrol acetate
[6] = 5 μM, 20 pmol enzyme, listed as megestrol acetate
[7] = 50 μM, 5 pmol enzyme, listed as megestrol acetate
[8] = 50 μM, 20 pmol enzyme, listed as megestrol acetate

CC(=O)O[C@]1(C(C)=O)CC[C@H]2[C@@H]3C=C(C)C4=CC(=O)CC[C@]4(C)[C@H]3CC[C@@]21C [Megestrol Acetate, 17 α-acetyloxy-6-methylpregna-4,6-diene-3,20-dione]
Individual Raw Data Observed ([1]; 5 μM, 5 pmol enzyme): 0.8008 µM and 0.7908 µM and 0.8634 µM
Percent of Parent Disappearance Individual ([1]; 5 μM, 5 pmol enzyme): 58.1% and 58.6% and 54.8%
Percent of Parent Disappearance Mean ± SD ([1]; 5 μM, 5 pmol enzyme): 57.2 ± 02.06%
Percent of Parent Disappearance Mean ± SD [1, 5]: 57.2±2.06%
Individual Raw Data Observed ([1]; 5 μM, 20 pmol enzyme): 0.00000 ^a μM
Percent of Parent Disappearance Individual ([1]; 5 μM, 20 pmol enzyme): >93.6%
Percent of Parent Disappearance Mean ± SD ([1]; 5 μM, 20 pmol enzyme): >93.6 ± 0.000%
Percent of Parent Disappearance Mean ± SD [1, 6]: > 93.6±0.000%
Individual Raw Data Observed ([1]; 50 μM, 5 pmol enzyme): 14.3 µM and 14.66 µM and 14.98 µM
Percent of Parent Disappearance Individual ([1]; 50 μM, 5 pmol enzyme): 20.9% and 18.9% and 17.1%
Percent of Parent Disappearance Mean ± SD ([1]; 50 μM, 5 pmol enzyme): 18.9 ± 1.90%
Percent of Parent Disappearance Mean ± SD [1, 7]: 18.9±1.90%
Individual Raw Data Observed ([1]; 50 μM, 20 pmol enzyme): 5.336 µM and 5.631 µM and 6.813 µM
Percent of Parent Disappearance Individual ([1]; 50 μM, 20 pmol enzyme): 73.5% and 72.0% and 66.1%
Percent of Parent Disappearance Mean ± SD ([1]; 50 μM, 20 pmol enzyme): 70.5 ± 3.89%
Percent of Parent Disappearance Mean ± SD [1, 8]: 70.5±3.89%
Individual Raw Data Observed ([2]; 5 μM, 5 pmol enzyme): 2.221 µM and 2.3 µM and 2.31 µM
Percent of Parent Disappearance Individual ([2]; 5 μM, 5 pmol enzyme): −0.459% and −4.00% and −4.49%
Percent of Parent Disappearance Mean ± SD ([2]; 5 μM, 5 pmol enzyme): −2.98 ± 2.20%
Percent of Parent Disappearance Mean ± SD [2, 5]: 2.98±2.20%
Individual Raw Data Observed ([2]; 5 μM, 20 pmol enzyme): 2.474 µM and 2.381 µM and 2.385 µM
Percent of Parent Disappearance Individual ([2]; 5 μM, 20 pmol enzyme): −0.257% and 3.52% and 3.37%
Percent of Parent Disappearance Mean ± SD ([2]; 5 μM, 20 pmol enzyme): 2.21 ± 2.14%
Percent of Parent Disappearance Mean ± SD [2, 6]: 2.21±2.14%
Individual Raw Data Observed ([2]; 50 μM, 5 pmol enzyme): 20.88 µM and 21.85 µM and 25.99 µM
Percent of Parent Disappearance Individual ([2]; 50 μM, 5 pmol enzyme): 3.63% and −0.862% and −20.0%
Percent of Parent Disappearance Mean ± SD ([2]; 50 μM, 5 pmol enzyme): −5.73 ± 12.5%
Percent of Parent Disappearance Mean ± SD [2, 7]: 5.73±12.5%
Individual Raw Data Observed ([2]; 50 μM, 20 pmol enzyme): 21.46 µM and 22.47 µM and 22.35 µM
Percent of Parent Disappearance Mean ± SD ([2]; 50 μM, 20 pmol enzyme): 2.53 ± 2.43%
Percent of Parent Disappearance Mean ± SD [2, 8]: 2.53±2.43%
Individual Raw Data Observed ([3]; 5 μM, 5 pmol enzyme): 2.139 µM and 2.028 µM and 1.969 µM
Percent of Parent Disappearance Individual ([3]; 5 μM, 5 pmol enzyme): −8.12% and −2.56% and 0.430%
Percent of Parent Disappearance Mean ± SD ([3]; 5 μM, 5 pmol enzyme): −3.42 ± 4.34%
Percent of Parent Disappearance Mean ± SD [3, 5]: 3.42±4.34%
Individual Raw Data Observed ([3]; 5 μM, 20 pmol enzyme): 2.14 µM and 2.225 µM and 2.128 µM
Percent of Parent Disappearance Individual ([3]; 5 μM, 20 pmol enzyme): 2.70% and −1.16% and 3.25%
Percent of Parent Disappearance Mean ± SD ([3]; 5 μM, 20 pmol enzyme): 1.60 ± 2.40%
Percent of Parent Disappearance Mean ± SD [3, 6]: 1.60±2.40%
Individual Raw Data Observed ([3]; 50 μM, 5 pmol enzyme): 21.34 µM and 20.03 µM and 19.86 µM
Percent of Parent Disappearance Individual ([3]; 50 μM, 5 pmol enzyme): −9.66% and −2.96% and −2.05%
Percent of Parent Disappearance Mean ± SD ([3]; 50 μM, 5 pmol enzyme): −4.89 ± 4.16%
Percent of Parent Disappearance Mean ± SD [3, 7]: 4.89±4.16%
Individual Raw Data Observed ([3]; 50 μM, 20 pmol enzyme): 15.71 µM and 16.25 µM and 16.51 µM
Percent of Parent Disappearance Individual ([3]; 50 μM, 20 pmol enzyme): −0.956% and −4.44% and −6.11%
Percent of Parent Disappearance Mean ± SD ([3]; 50 μM, 20 pmol enzyme): −3.84 ± 2.63%
Percent of Parent Disappearance Mean ± SD [3, 8]: 3.84±2.63%
Individual Raw Data Observed ([4]; 5 μM, 5 pmol enzyme): 2.202 µM and 3.025 µM and 2.609 µM
Percent of Parent Disappearance Mean ± SD ([4]; 5 μM, 5 pmol enzyme): −18.0 ± 18.6%
Percent of Parent Disappearance Mean ± SD [4, 5]: no disappearance of megestrol acetate was detected
Individual Raw Data Observed ([4]; 5 μM, 20 pmol enzyme): 1.94 µM and 1.985 µM and 2.045 µM
Percent of Parent Disappearance Individual ([4]; 5 μM, 20 pmol enzyme): 2.05% and −0.201% and −3.26%
Percent of Parent Disappearance Mean ± SD ([4]; 5 μM, 20 pmol enzyme): −0.468 ± 2.66%
Percent of Parent Disappearance Mean ± SD [4, 6]: no disappearance of megestrol acetate was detected
Individual Raw Data Observed ([4]; 50 μM, 5 pmol enzyme): 21.4 µM and 22.9 µM and 22.7 µM
Percent of Parent Disappearance Individual ([4]; 50 μM, 5 pmol enzyme): 1.01% and −5.95% and −5.01%
Percent of Parent Disappearance Mean ± SD ([4]; 50 μM, 5 pmol enzyme): −3.32 ± 3.78%
Percent of Parent Disappearance Mean ± SD [4, 7]: no disappearance of megestrol acetate was detected
Individual Raw Data Observed ([4]; 50 μM, 20 pmol enzyme): 19.69 µM and 20.64 µM and 20.58 µM
Percent of Parent Disappearance Individual ([4]; 50 μM, 20 pmol enzyme): −0.513% and −5.33% and −5.02%
Percent of Parent Disappearance Mean ± SD ([4]; 50 μM, 20 pmol enzyme): −3.62 ± 2.70%
Percent of Parent Disappearance Mean ± SD [4, 8]: no disappearance of megestrol acetate was detected
Percent of Parent Disappearance Individual (CYP2B6): 54.8%
difference in metabolism in the presence or absence of the inhibitor (LC/MS) (CYP2E1): a significant difference in metabolism
